Laboratory results as given in US7169782B2, “Aryl substituted thiazolidinones and the use thereof” (Euro-Celtique S.A., priority 2001, dated 2007).

Each compound was assayed against rBIIa/beta 1 sodium channels expressed in Xenopus oocytes (Rattus norvegicus, UniProt P04775) (assay: Electrophysiological assay, two-electrode voltage clamp in oocytes, inactivated-state protocol). Conditions: not given.
Type: cell-based
Description: An electrophysiological assay was used to measure potencies of compounds of the present invention rBIIa/beta 1 sodium channels expressed in Xenopus oocytes.
Preparation of cRNA encoding cloned rat brain type IIa (rBIIa) and beta 1 (β1): cDNA clones encoding the rat brain beta 1 subunit are cloned in house using standard methods, and mRNA are prepared by standard methods. mRNA encoding rBIIa is provided by Dr. A. Golden (UC Irvine). The mRNAs are diluted and stored at −80° C. in 1 μL aliquots until injection.
Preparation of oocytes: Mature female Xenopus laevis are anaesthetized (20–40 min) using 0.15% 3-aminobenzoic acid ethyl ester (MS-222) following established procedures (Woodward, R. M., et al., Mol. Pharmacol. 41:89–103 (1992)).
Two to six ovarian lobes are surgically removed. Oocytes at developmental stages V–VI are dissected from the ovary, wherein the oocytes are still surrounded by enveloping ovarian tissues. Oocytes are defolliculated on the day of surgery by treatment with collagenase (0.5 mg/mL Sigma Type I, or Boehringer Mannheim Type A, for 0.5–1 hr). Treated oocytes are vortexed to dislodge epithelia, washed repeatedly and stored in Barth's medium containing 88 mM NaCl, 1 mM KCl, 0.41 mM CaCl2, 0.33 mM Ca(NO3)2, 0.82 mM MgSO4, 2.4 mM NaHCO3, 5 mM HEPES, pH 7.4 adjusted with 0.1 mg/mL gentamycin sulphate.
Micro-injection of oocytes: Defolliculated oocytes are micro-injected using a Nanoject injection system (Drummond Scientific Co., Broomall, Pa.). Injection pipettes are beveled to minimize clogging. Tip diameter of injection pipettes is 15–35 μm. Oocytes are microinjected with approximately 50 nL 1:10 ratio mixtures of cRNAs for rBIIa and beta 1 respectively.
Electrophysiology: Membrane current responses are recorded in frog Ringer solution containing 115 mM NaCl, 2 mM KCl, 1.8 mM CaCl2, 5 mM HEPES, pH 7.4. Electrical recordings are made using a conventional two-electrode voltage clamp (Dagan TEV-200) over periods ranging between 1–7 days following injection. The recording chamber is a simple gravity fed flow-through chamber (volume […] depending on adjustment of aspirator). Oocytes are placed in the recording chamber, impaled with electrodes and continuously perfused (5–15 mL min^−1) with frog Ringer's solution. The tested compounds are applied by bath perfusion.
Voltage protocols for evoking sodium channel currents: The standard holding potential for whole oocyte clamp is −120 mV. Standard current-voltage relationships are elicited by 40 ms depolarizing steps starting from −60 mV to +50 mV in 10 mV increments. Peak currents are measured as the maximum negative current after depolarizing voltage steps. The voltage from maximum current response is noted and used for the next voltage protocol.
The purpose is to find compounds that are state dependent modifiers of neuronal sodium channels. Preferably, the compounds have a low affinity for the rested/closed state of the channel, but a high affinity for the inactivated state. The following voltage protocol is used to measure a compounds affinity for the inactivated state. Oocytes are held at a holding potential of −120 mV. At this membrane voltage, nearly all of the channels are in the closed state. Then a 4 second depolarization is made to the voltage where the maximum current is elicited. At the end of this depolarization, nearly all the channels are in the inactivated state. A 10 ms hyperpolarizing step is then made in order to remove some channels from the inactivated state. A final depolarizing test pulse is used to assay the sodium current after this prolonged depolarization (see analysis below). Sodium currents are measured at this test pulse before and after the application of the tested compound. Data is acquired using PCLAMP 8.0 software and analyzed with […] software (Axon instruments). […]

Chain of rBIIa/beta 1 sodium channels expressed in Xenopus oocytes (P04775 whole entry): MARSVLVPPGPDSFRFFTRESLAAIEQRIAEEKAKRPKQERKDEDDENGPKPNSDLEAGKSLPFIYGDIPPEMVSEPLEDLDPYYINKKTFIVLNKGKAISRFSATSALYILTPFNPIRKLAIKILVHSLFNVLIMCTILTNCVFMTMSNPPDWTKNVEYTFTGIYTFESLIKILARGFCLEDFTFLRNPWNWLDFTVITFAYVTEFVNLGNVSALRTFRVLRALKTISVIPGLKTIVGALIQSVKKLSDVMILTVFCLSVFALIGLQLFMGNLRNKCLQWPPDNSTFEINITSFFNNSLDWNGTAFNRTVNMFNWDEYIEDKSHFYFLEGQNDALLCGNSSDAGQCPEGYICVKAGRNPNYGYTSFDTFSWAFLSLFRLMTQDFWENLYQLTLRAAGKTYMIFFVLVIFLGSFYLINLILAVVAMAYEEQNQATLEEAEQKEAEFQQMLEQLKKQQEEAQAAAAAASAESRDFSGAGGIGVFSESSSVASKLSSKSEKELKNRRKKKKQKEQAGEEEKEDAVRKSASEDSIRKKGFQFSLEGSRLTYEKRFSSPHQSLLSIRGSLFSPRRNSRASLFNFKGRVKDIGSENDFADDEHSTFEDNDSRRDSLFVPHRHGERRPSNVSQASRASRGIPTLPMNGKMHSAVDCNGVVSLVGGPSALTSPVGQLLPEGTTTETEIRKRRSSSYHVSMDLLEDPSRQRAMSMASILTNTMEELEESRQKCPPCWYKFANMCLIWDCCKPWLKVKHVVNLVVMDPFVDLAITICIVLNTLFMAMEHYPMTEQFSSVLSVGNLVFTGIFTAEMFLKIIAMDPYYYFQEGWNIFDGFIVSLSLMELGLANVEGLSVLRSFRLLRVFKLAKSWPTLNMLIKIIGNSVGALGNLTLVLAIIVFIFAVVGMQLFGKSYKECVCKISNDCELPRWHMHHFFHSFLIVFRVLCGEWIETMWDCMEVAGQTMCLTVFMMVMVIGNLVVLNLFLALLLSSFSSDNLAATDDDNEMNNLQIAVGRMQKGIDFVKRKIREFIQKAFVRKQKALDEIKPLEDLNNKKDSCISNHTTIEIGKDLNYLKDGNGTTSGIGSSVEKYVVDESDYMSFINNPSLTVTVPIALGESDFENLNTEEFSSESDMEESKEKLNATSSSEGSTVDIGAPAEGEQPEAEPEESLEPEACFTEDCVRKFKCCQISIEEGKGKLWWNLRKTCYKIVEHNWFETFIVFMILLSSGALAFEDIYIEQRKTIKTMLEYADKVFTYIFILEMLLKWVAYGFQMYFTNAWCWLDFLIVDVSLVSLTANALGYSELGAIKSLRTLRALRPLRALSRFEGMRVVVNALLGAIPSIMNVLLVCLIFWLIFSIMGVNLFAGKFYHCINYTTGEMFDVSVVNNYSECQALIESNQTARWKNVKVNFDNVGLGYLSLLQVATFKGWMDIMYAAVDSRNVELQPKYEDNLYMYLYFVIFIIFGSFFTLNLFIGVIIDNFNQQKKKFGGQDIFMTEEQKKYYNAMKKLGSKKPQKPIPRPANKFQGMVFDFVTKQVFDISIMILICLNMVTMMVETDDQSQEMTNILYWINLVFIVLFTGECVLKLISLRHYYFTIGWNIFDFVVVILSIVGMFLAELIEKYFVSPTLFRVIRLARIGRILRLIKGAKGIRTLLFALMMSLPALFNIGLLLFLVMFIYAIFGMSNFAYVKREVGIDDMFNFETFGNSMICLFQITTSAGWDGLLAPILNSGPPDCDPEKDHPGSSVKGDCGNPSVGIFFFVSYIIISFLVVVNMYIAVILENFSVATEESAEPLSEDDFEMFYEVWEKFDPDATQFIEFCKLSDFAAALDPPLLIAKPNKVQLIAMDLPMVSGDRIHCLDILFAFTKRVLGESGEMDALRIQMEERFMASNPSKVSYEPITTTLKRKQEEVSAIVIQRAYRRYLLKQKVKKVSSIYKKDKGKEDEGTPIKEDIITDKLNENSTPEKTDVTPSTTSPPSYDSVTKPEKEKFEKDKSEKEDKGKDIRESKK
Chain of rBIIa/beta 1 sodium channels expressed in Xenopus oocytes (Q00954 19-218 partner): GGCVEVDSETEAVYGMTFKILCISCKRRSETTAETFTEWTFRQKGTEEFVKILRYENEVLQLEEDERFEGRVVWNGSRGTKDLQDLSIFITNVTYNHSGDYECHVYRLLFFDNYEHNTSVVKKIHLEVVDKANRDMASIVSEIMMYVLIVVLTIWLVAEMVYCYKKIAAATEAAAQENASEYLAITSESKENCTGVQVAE

Row | SMILES | Ki
1 | O=C1CSC(C=Cc2ccccc2)N1CCN1CCCCC1 (centres unmarked) | 8790 nM

Same assay, conditions: apparent inhibition constant from single point inhibition data; rat brain type IIa/beta 1 Na+ channels in Xenopus oocytes; inactivated state; read-out: Ki (oocyte)

Row | SMILES | Ki
2 | O=C1CSC(c2ccc(-c3ccc(Cl)cc3)o2)N1CCN1CCCCC1 (centres unmarked) | 600 nM
3 | CC1SCC(=O)N1CCN1CCCCC1 (centres unmarked) | 70700 nM
4 | CC1CCCCN1CCCN1C(=O)CSC1c1cccc(Oc2cccc(C(F)(F)F)c2)c1 (centres unmarked) | 1320 nM
5 | O=C1CSC(c2cccc(OCc3ccccc3)c2)N1CCN1CCCC1 (centres unmarked) | 3430 nM
6 | O=C1CSC(c2cccc(Oc3ccc(Cl)c(Cl)c3)c2)N1CCN1CCCCC1 (centres unmarked) | 180 nM
7 | CN(C)CC(C)(C)CN1C(=O)CSC1c1cccc(Oc2ccc(Cl)c(Cl)c2)c1 (centres unmarked) | 390 nM
8 | O=C1CSC(c2cccc(Oc3cccc(C(F)(F)F)c3)c2)N1CCNCc1ccccc1 (centres unmarked) | 50 nM
9 | CN(C)CCN1C(=O)CSC1c1cccc(Oc2ccc(C(C)(C)C)cc2)c1 (centres unmarked) | 840 nM
10 | CN(C)CC(C)(C)CN1C(=O)CSC1c1cccc(Oc2cccc(C(F)(F)F)c2)c1 (centres unmarked) | 230 nM
11 | CN(C)CCCN1C(=O)CSC1c1cccc(Oc2cc(Cl)cc(Cl)c2)c1 (centres unmarked) | 1880 nM
12 | CC(C)N(CCN1C(=O)CSC1c1cccc(Oc2cccc(C(F)(F)F)c2)c1)C(C)C (centres unmarked) | 30 nM
13 | O=C1CSC(C=C(c2ccccc2)c2ccccc2)N1CCN1CCCC1 (centres unmarked) | 3480 nM
14 | CC(C)(C)c1ccc(Oc2cccc(C3SCC(=O)N3CCN3CCCCC3)c2)cc1 (centres unmarked) | 180 nM
15 | O=C1CSC(c2ccc(Oc3ccc(F)cc3)cc2)N1CCN1CCCCC1 (centres unmarked) | 500 nM
16 | O=C1CSC(c2cccc(OCc3ccccc3)c2)N1CCN1CCCCC1 (centres unmarked) | 390 nM
17 | O=C1CSC(c2cccc(Oc3ccccc3)c2)N1C1CCN(Cc2ccccc2)CC1 (centres unmarked) | 250 nM
18 | O=C1CSC(C=C(c2ccccc2)c2ccccc2)N1CCN1CCCCC1 (centres unmarked) | 290 nM

Row | SMILES | Ki
19 | O=C1CSC(c2cccc(Oc3cccc(C(F)(F)F)c3)c2)N1CCN1CCCC1 (centres unmarked) | 420 nM
20 | O=C1CSC(c2cccc(Oc3ccc(Cl)c(Cl)c3)c2)N1CCN1CCOCC1 (centres unmarked) | 810 nM
21 | CN(C)CCCN1C(=O)CSC1c1cccc(Oc2cccc(C(F)(F)F)c2)c1 (centres unmarked) | 2750 nM
22 | O=C1CSC(c2cccc(Oc3ccccc3)c2)N1CCN1CCCCC1 (centres unmarked) | 430 nM
23 | O=C1CSC(c2ccc(Oc3ccc(F)cc3)cc2)N1C1CCN(Cc2ccccc2)CC1 (centres unmarked) | 280 nM
24 | O=C1CSC(c2cccc(Oc3ccc(Cl)c(Cl)c3)c2)N1CCN1CCCC1 (centres unmarked) | 720 nM
25 | O=C1CSC(c2cccc3ccccc23)N1CCN1CCCCC1 (centres unmarked) | 2830 nM
26 | O=C1CSC(c2cccc(Oc3cccc(C(F)(F)F)c3)c2)N1CCCn1ccnc1 (centres unmarked) | 1150 nM
27 | O=C1CSC(c2cccc(OCc3ccccc3)c2)N1CCCn1ccnc1 (centres unmarked) | 6550 nM
28 | CC1CCCCN1CCCN1C(=O)CSC1c1cccc(Oc2ccc(Cl)c(Cl)c2)c1 (centres unmarked) | 880 nM
29 | CCn1c2ccccc2c2cc(C3SCC(=O)N3CCN3CCCC3)ccc21 (centres unmarked) | 7400 nM
30 | O=C1CSC(c2cccc(Oc3cccc(C(F)(F)F)c3)c2)N1Cc1ccccn1 (centres unmarked) | 3400 nM
31 | COc1ccc(Oc2cccc(C3SCC(=O)N3CCN3CCCCC3)c2)cc1 (centres unmarked) | 800 nM
32 | O=C1CSC(c2cccc(Oc3ccc(Cl)cc3)c2)N1CCN1CCCCC1 (centres unmarked) | 390 nM
33 | CN(C)CCN1C(=O)CSC1c1cccc(Oc2cc(Cl)cc(Cl)c2)c1 (centres unmarked) | 840 nM
34 | O=C1CSC(C#Cc2ccccc2)N1CCN1CCCCC1 (centres unmarked) | 5350 nM
35 | CN(C)CCN1C(=O)CSC1C=C(c1ccccc1)c1ccccc1 (centres unmarked) | 2600 nM
